Article PMC5502072 (Investigational New Drugs, 2017)
Entries after “also recorded” stand apart in the source; their conditions may differ. Read-outs that look alike come from different tables or passages of the source.

Legend:
advanced solid tumours = assay: Preliminary antitumour efficacy (RECIST v1.1); format: in vivo, human
Method: Tumour assessments were performed according to Response Evaluation Criteria in Solid Tumors version 1.1 (RECIST v1.1) at baseline, on day 21 of the first treatment cycle, then every 6 weeks after the start of treatment for 12 weeks, and thereafter every 12 weeks (±1 week) until discontinuation of study treatment or withdrawal of consent.

several tumour types = conditions: cited from earlier work
advanced solid tumors = conditions: all responders had FGFR2 or FGFR3 translocations; cited from earlier work
[1] = system: lung squamous cell carcinoma; urothelial carcinoma with FGFR3 alterations; conditions: cited from earlier work
[2] = one patient with FGFR1-amplified squamous NSCLC, 80 mg bid
[3] = previously treated advanced/metastatic UC with FGFR3 alterations

AZD4547
Patients with stable disease (≥4 weeks' duration) (advanced solid tumours; Part A): 70%
Patients with stable disease ≥4 weeks (advanced solid tumours; Part A): 21/30
Range of percentage change in the sum of the diameters of target lesions (advanced solid tumours; Part A): –6.8% to 48.9
Median percentage change in the sum of the diameters of target lesions (advanced solid tumours; Part A (25/30 patients)): 5.9%
Patients with stable disease (≥4 weeks' duration) (advanced solid tumours; Part A, 40 mg bid): 3 n
Patients with stable disease (≥4 weeks' duration) (advanced solid tumours; Part A, 80 mg bid): 3 n
Patients with stable disease (≥4 weeks' duration) (advanced solid tumours; Part A, 120 mg bid): 5 n
Patients with stable disease (≥4 weeks' duration) (advanced solid tumours; Part A, 160 mg qd): 10 n
Range of percentage change in the sum of the diameters of target lesions (advanced solid tumours; Part B): –16.3% to 23.4
Median percentage change in the sum of the diameters of target lesions (advanced solid tumours; Part B (all patients)): 3.0%
Patients continuing to experience stable disease at 10 weeks (advanced solid tumours; Part B, 80 mg bid): 25.0%
Patients with stable disease ≥10 weeks (advanced solid tumours; Part B, 80 mg bid): 1/4
Complete responses and partial responses (RECIST v1.1) (advanced solid tumours; Parts A and B): No complete or partial responses were observed; also recorded: not observed
Patients with stable disease (several tumour types; 4/21 additional patients): 19%
Best response (several tumour types; [2]): partial response
Duration of PR (several tumour types; [2]): ≥ 12 weeks

COc1cc(OC)cc(N(CCNC(C)C)c2ccc3ncc(-c4cnn(C)c4)nc3c2)c1 [JNJ-42756493]
Patients with PR (advanced solid tumors): 4/23

CCN1CCN(c2ccc(Nc3cc(N(C)C(=O)Nc4c(Cl)c(OC)cc(OC)c4Cl)ncn3)cc2)CC1 [BGJ398]
Patients with PR ([1]; lung squamous cell carcinoma, selected by FGFR amplification status): 2/17
Complete response [1, 3]: one unconfirmed complete response
Patients with PR [1, 3]: 8/25
